Series [1] has as its target T1, SST2 (Homo sapiens (Human), UniProt P30874). The series can be described thus: Competitive binding assay (IC50) on HEK-SST2 cell membranes with 125I-Tyr-somatostatin-14. Conditions: 1 hour at 37° C., radioligand [^125I]-Tyr-somatostatin-14 0.05 nM, mean ± SD. The procedure: (§1) Quantification of the free and bound radioligand was performed in a gamma-counter. The data were analyzed by GraphPad Prism 9 Software and the IC50 values were determined using the “log(inhibitor) vs response” equation based on the specific binding=total−non-specific binding.
(§2) Table 18. IC50 values were determined by competitive assays. […] The results are expressed as means standard deviation (SD) from a minimum of two separate experiments, each in triplicates.

A short description of series [2]: in vivo. Conditions: iv, 20 umol, total radioactivity.
Protocol: The tumors were allowed to grow for 1-3 weeks before commencement of the experiments.
The mice were randomly distributed in groups and euthanized at 1 and at 4 hours post-injection. The organs of interest were collected, rinsed, blotted, weighed and counted in a gamma counter. The results are expressed as percentage of injected activity per gram (% IA/g), representing the mean±standard deviation of n=4-8 mice per group and they were obtained by extrapolation from counts of an aliquot taken from the injected solution as standard.
The mice were randomly distributed in groups, injected with the radiotracer under investigation and euthanized at 1 and at 4 hours post-injection of the radiotracers under investigation. The organs of interest were collected, rinsed, blotted, weighed and counted in a gamma counter. The results are expressed as percentage of injected activity per gram (% IA/g), representing the mean±standard deviation of all mice per group and they were obtained by extrapolation from counts of an aliquot taken from the injected solution as standard.
The mice were randomly distributed in groups and euthanized at 4 hours post-injection. The organs of interest were collected, rinsed, blotted, weighed, and their respective radioactivity was counted in a gamma counter.
In series [3] the test system is HEK-SST2 xenografts. The series can be described thus: PET/CT imaging in HEK-SST2 xenografted mice. In kind it is in vivo. As to conditions: 0-60 min and 240 min. The procedure:
Tumor xenografted mice were injected intravenously into the tail vein with the tested radiotracer. […] Mice were anesthetized with 1.5% isoflurane and dynamic PET scans were acquired during 1 hour upon injection of the radiotracer. The mice were euthanized by CO2 at 4 hours p.i., the bladder was mechanically emptied, and static PET scans were acquired for 30 min. PET images were acquired using the R-CUBE PET scanner system (MOLECUBES, Gent, Belgium) and they were decay corrected and reconstructed with the VivoQuant software version 4.0. The CT was imaged supine, headfirst, using the NanoSPECT/CT™ scanner (Bioscan Inc.). Topograms and helical CT scans of the whole mouse were first acquired using the following parameters: X-ray tube current: 177 μA, X-ray tube voltage 45 kVp, 90 seconds and 180 frames per rotation, pitch 1. CT images were reconstructed using CTReco (version r1.146), with a standard filtered back projection algorithm (exact cone beam) and post-filtered (RamLak, 100% frequency cut-off), resulting in a pixel size of 0.2 mm. Co-registered PET/CT images were visualized using maximum intensity projection (MIP) with InVivoScope (version 1.43, Bioscan Inc.). The results are presented in the Examples that follow.

Series [4] in a line: Lipophilicity, log D by shake-flask method (1-octanol/PBS pH 7.4). In kind it is physicochemical. As to conditions: pH 7.4, shake-flask, Table 17, mean ± SD, read-out: log D(O/PBS pH 7.4). A digest of the protocol:
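Radiotracer shaken 30 min in pre-saturated 1-octanol/PBS pH 7.4 (1:1), then centrifuged for phase separation. Radioactivity in each phase measured by gamma counting; log D reported as the average log of organic/PBS activity ratio.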

Series [5] concerns the target T1, SST2. The series can be described thus: Saturation binding on HEK-SST2 cell membranes. Conditions: 37° C. The procedure:
Cell Membrane Preparation: HEK-SST2 cells were grown to confluence, mechanically disaggregated, washed with PBS (pH 7.4) and re-suspended in 20 mM of homogenization Tris buffer (pH 7.5) containing 1.3 mM EDTA, 0.25 M sucrose, 0.7 mM bacitracin, 5 μM soybean trypsin inhibitor, and 0.7 mM PMSF. The cells were homogenized using Ultra-Turrax, and the homogenized suspension was centrifuged at 500×g for 10 min at 4° C. The supernatant was collected in centrifuge tubes (Beckman Coulter Inc., Brea, CA, USA). This procedure was then repeated 5 times. The collected supernatant was centrifuged in an ultra-centrifuge (Beckman) at 4° C. for 55 min at 49,000×g. Then, the pellet was re-suspended in 10 mM ice-cold HEPES buffer (pH 7.5), aliquoted, and stored at −80° C. The protein concentration of those membrane suspensions was determined by the Bradford method, BSA as the standard.
Saturation Experiment: The association profiles of [^61Cu]Cu-NODAGA-LM3 was studied at different concentrations, ranging from 0.075 to 10 nM, in HEK-SST2 cell membranes at 37° C. Each assay tube contained 170 μL of binding buffer (20 mM HEPES, pH 7.4, containing 4 mM μgCl2, 0.2% BSA, 20 μg/L bacitracin, 20 μg/L PMSF and 200,000 KIU/L aprotinin). […] The dissociation constant (KD) and maximal binding capacity (Bmax) values were calculated using GraphPad Software Inc., Prism 7, San Diego, CA, USA (FIG. 37)

For series [6], the target named is PSMA (Homo sapiens (Human), UniProt Q04609). In words: Competitive binding assay (IC50) on LNCaP cells with radioligand [125I-BA]KuE. Conditions: 1 hour on ice, radioligand [^125I-BA]KuE 0.2 nM, mean ± SD. As to the method: In the case of the PSMA constructs, the radioiodinated ((S)-1-carboxy-5-(4-(-^125I-iodo-benzamido)pentyl)carbamoyl)-L-glutamic acid ([^125I-BA]KuE) was used as reference radioligand. The assay was performed on LNCaP cells seeded in 24-well plates (1.5×10^5 cells/well). The cells were incubated with increased concentrations of each ^natCu-complexed conjugates (ranging from 0.1 up to 100 nM) in the presence of 0.2 nM [^125I-BA]KuE. After 1 hour incubation on ice, the unbound (free) [^125I-BA]KuE was collected by removing the medium and the cells were detached with NaOH 1 M for counting (bound radioligand). Non-specific binding was defined as the amount of binding activity in the presence of the blocking agent 2-(phosphonomethyl)pentanedioic acid (2-PMPA) in high excess (10 μM).
as §1, §2

PSMA, sequence (Q04609 whole entry): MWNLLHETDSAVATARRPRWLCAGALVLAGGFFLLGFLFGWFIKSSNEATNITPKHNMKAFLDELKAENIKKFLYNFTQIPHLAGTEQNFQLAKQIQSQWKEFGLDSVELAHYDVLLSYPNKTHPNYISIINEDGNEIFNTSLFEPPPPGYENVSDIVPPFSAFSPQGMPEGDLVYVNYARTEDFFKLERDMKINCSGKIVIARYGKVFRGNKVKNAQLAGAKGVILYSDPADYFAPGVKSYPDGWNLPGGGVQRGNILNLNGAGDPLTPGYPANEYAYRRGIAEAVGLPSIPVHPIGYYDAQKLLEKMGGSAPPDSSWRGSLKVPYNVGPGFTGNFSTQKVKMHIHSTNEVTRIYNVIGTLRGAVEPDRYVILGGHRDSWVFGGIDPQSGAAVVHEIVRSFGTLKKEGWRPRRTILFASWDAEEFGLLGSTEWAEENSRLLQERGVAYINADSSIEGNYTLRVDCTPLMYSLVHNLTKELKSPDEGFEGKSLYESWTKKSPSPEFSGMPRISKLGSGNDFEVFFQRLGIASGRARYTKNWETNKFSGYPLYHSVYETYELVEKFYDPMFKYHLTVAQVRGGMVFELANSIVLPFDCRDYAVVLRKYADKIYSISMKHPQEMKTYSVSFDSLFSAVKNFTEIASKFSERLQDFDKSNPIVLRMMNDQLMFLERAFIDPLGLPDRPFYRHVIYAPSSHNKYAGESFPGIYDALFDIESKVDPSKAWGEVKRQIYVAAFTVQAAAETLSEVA
T1 sequence (P30874 whole entry): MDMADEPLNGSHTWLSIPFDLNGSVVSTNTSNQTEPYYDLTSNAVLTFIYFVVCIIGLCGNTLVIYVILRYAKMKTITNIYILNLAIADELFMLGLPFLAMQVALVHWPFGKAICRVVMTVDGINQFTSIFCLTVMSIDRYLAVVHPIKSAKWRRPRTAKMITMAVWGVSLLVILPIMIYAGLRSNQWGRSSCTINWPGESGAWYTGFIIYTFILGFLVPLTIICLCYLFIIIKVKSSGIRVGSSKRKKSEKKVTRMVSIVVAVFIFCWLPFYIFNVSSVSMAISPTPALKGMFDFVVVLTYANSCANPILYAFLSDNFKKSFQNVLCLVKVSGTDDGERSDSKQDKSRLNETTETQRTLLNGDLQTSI

The IC50 is the concentration at which inhibition is half-maximal. The low end stands for greater potency in that assay, the high end for weaker potency in that assay. Take `CC(O)C1NC(=O)C(CCCCN)NC(=O)C(Cc2ccc(NC(N)=O)cc2)NC(=O)C(Cc2ccc(O)cc2)NC(=O)C(NC(=O)C(Cc2ccc(Cl)cc2)NC(=O)CCC(C(=O)O)N2CCN(CC(=O)O)CCN(CC(=O)O)CC2)CSSCC(C(=O)NC(Cc2ccc(O)cc2)C(N)=O)NC1=O` (centres unmarked) [NODAGA-LM3]: the 50% inhibitory concentration (IC50) in series [1] was determined as 17.8 ± 2 nM.
Usually tissue uptake stands for the share of the injected amount in each gram of the tissue. As a reminder, the Kd is the equilibrium constant for the complex coming apart. As to `C[C@@H](O)[C@@H]1NC(=O)[C@H](CCCCN)NC(=O)[C@@H](Cc2ccc(NC(N)=O)cc2)NC(=O)[C@H](Cc2ccc(O)cc2)NC(=O)[C@H](NC(=O)[C@H](Cc2ccc(Cl)cc2)NC(=O)CCC(C(=O)O)N2CCN(CC(=O)O)CCN(CC(=O)O)CC2)CSSC[C@@H](C(=O)N[C@H](Cc2ccc(O)cc2)C(N)=O)NC1=O` (some centres unmarked) [[^61Cu]Cu-NODAGA-LM3, metal not drawn], the tissue uptake at 4 h came to 0.6 ± 0.15 %ID/g in series [2] (athymic nude Foxn1+Foxn1+, mouse, Biodistribution Adrenal); 0.11 ± 0.02 %ID/g in series [2] (athymic nude Foxn1+Foxn1+, mouse, Biodistribution Blood); 0.13 ± 0.02 %ID/g in series [2] (athymic nude Foxn1+Foxn1+, mouse, Biodistribution Heart); 0.43 ± 0.08 %ID/g in series [2] (athymic nude Foxn1+Foxn1+, mouse, Biodistribution Intestine); 0.44 ± 0.06 %ID/g in series [2] (athymic nude Foxn1+Foxn1+, mouse, Biodistribution Liver); 0.32 ± 0.05 %ID/g in series [2] (athymic nude Foxn1+Foxn1+, mouse, Biodistribution Lung). The tissue uptake at 4 h in series [2] (athymic nude Foxn1+Foxn1+, mouse, Biodistribution Pancreas) amounted to 0.43 ± 0.12 %ID/g; in series [2] (athymic nude Foxn1+Foxn1+, mouse, Biodistribution Spleen), 0.14 ± 0.01 %ID/g; in series [2] (athymic nude Foxn1+Foxn1+, mouse, Biodistribution Stomach), 0.68 ± 0.15 %ID/g; in series [2] (athymic nude Foxn1, mouse, Biodistribution Bone) it was 0.31 ± 0.07 %ID/g; in series [2] (athymic nude Foxn1, mouse, Biodistribution Kidneys) it was 4.59 ± 0.41 %ID/g; in series [2] (athymic nude Foxn1, mouse, Biodistribution Muscle), 0.06 ± 0.02 %ID/g. The tissue uptake at 4 h in series [2] (athymic nude Foxn1, mouse, Biodistribution Pituitary) turned out to be 2.96 ± 0.62 %ID/g; in series [2] (athymic nude Foxn1, mouse, Biodistribution SSTR2-tumor) it was 20.4 ± 4.2 %ID/g. Besides, the “distribution pattern on PET/CT” value in series [3] is reported as “same distribution pattern”. In addition, the logD in series [4] is -2.42 ± 0.04. Moreover, the Kd in series [5] is 1.41 to 2.92 nM.
In turn, `O=C([O-])CN1CCN(CC(=O)[O-])CCN(C(CCC(=O)N[C@H](Cc2ccc(O)c(I)c2)C(=O)N[C@H](Cc2ccccc2)C(=O)N[C@H](CCCCNC(=O)CCCCCCC(=O)NCCCC[C@H](NC(=O)N[C@@H](CCC(=O)O)C(=O)O)C(=O)O)C(=O)O)C(=O)O)CCN(CC(=O)O)CC1.[Cu+2]` (some centres unmarked) [^natCu-DOTAGA-PSMA-I&T, reference compound] had an IC50 in series [6] of 11.2 ± 2.3 nM.
Still for that read-out and setting: the result for `O=C([O-])CN1CCN(CC(=O)[O-])CCN([C@H](CCC(=O)N[C@H](Cc2ccc(O)c(I)c2)C(=O)N[C@H](Cc2ccccc2)C(=O)N[C@H](CCCCNC(=O)CCCCCCC(=O)NCCCC[C@H](NC(=O)N[C@@H](CCC(=O)O)C(=O)O)C(=O)O)C(=O)O)C(=O)O)CC1.[Cu+2]` [^natCu-NODAGA-PSMA-I&T] reads 9.3 ± 1.8 nM.

The values above are taken from US20240173440A1, “HIGH PURITY COPPER RADIOPHARMACEUTICAL COMPOSITIONS AND DIAGNOSTIC AND THERAPEUTIC USES THEREOF” (Nuclidium AG, priority 2022, published 2024).
